Experimental data taken from publication PMC12527922, “Cocaine chemogenetics blunts drug-seeking by synthetic physiology” (Nature, 2025).
“And” between values parts separate entries of the source, which are not always exact repeats. Equal values may be shown once.

What was measured:
[1] = molecular target: α7–5HT3 mutant chimeric channels (Homo sapiens, UniProt P36544, L141G); test: cell-based; assay type: cell-based, human α7 nAChR LBD, mouse 5HT3 IPD
[2] = molecular target: α7–5HT3 mutant chimeric channels (Homo sapiens, UniProt P36544, S170G); test: cell-based; assay type: cell-based, human α7 nAChR LBD, mouse 5HT3 IPD
[3] = molecular target: α7–5HT3 mutant chimeric channels (Homo sapiens, UniProt P36544, S170N); test: cell-based; assay type: cell-based, human α7 nAChR LBD, mouse 5HT3 IPD
[4] = molecular target: α7–GlyR mutant chimeric channels (Homo sapiens, UniProt P36544, L131F); test: Membrane potential assay screen, mutant α7–GlyR chimeric channels; assay type: cell-based; conditions: EC50 at α7GlyR L131F, sheet 1d
α7–GlyR mutant chimeric channels (Homo sapiens, UniProt P36544, L131F), sequence (P36544 23-228 L131F): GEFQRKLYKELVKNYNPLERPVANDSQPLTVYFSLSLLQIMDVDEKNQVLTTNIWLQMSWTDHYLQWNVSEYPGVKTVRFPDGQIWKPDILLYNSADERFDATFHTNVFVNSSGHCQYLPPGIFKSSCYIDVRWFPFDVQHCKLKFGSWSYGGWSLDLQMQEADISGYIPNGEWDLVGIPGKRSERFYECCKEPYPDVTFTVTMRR
α7–GlyR mutant chimeric channels (Homo sapiens, UniProt P36544, L131F), sequence (P23415 248-457 partner): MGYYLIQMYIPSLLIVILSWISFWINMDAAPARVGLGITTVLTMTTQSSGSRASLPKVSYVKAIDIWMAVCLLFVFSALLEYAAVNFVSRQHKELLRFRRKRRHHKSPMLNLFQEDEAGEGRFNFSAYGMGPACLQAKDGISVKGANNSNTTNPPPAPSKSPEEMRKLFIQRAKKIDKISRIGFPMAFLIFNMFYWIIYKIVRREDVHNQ

[5] = molecular target: α7–GlyR mutant chimeric channels (Homo sapiens, UniProt P36544, P216M); test: as above; assay type: cell-based; conditions: EC50 at α7 GlyR P216M, sheet 1d
α7–GlyR mutant chimeric channels (Homo sapiens, UniProt P36544, P216M), sequence (P36544 23-230 P216M): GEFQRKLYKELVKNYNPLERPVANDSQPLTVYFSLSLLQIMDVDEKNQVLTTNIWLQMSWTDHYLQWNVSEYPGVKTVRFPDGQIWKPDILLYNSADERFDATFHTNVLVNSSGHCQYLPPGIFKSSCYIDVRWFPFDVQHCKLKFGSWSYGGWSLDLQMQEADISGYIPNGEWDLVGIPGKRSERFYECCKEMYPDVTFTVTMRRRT
α7–GlyR mutant chimeric channels (Homo sapiens, UniProt P36544, P216M), sequence (P23415 248-457 partner): as the sequence (P23415 248-457 partner) above

[6] = molecular target: α7–GlyR mutant chimeric channels (Homo sapiens, UniProt P36544, L141P); test: as above; assay type: cell-based; conditions: EC50 at α7 GlyR L141P, sheet 1d
α7–GlyR mutant chimeric channels (Homo sapiens, UniProt P36544, L141P), sequence (P36544 23-230 L141P): as the sequence (P36544 23-230 P216M) above, with L119P, M194P counted along it
α7–GlyR mutant chimeric channels (Homo sapiens, UniProt P36544, L141P), sequence (P23415 247-457 partner): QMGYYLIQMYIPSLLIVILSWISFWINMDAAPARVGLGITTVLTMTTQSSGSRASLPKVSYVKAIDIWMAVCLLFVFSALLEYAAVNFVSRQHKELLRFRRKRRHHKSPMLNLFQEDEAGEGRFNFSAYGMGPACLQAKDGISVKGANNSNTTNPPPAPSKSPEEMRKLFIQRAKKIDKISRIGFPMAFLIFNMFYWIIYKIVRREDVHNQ

[7] = molecular target: α7–GlyR mutant chimeric channels (Homo sapiens, UniProt P36544, Q79S); test: as above; assay type: cell-based; conditions: EC50 at α7-GlyR Q79S, sheet 1d
[8] = molecular target: α7–GlyR mutant chimeric channels (Homo sapiens, UniProt P36544, L131Q); test: as above; assay type: cell-based; conditions: EC50 at α7 GlyR L131Q, sheet 1d
[9] = molecular target: α7–GlyR mutant chimeric channels (Homo sapiens, UniProt P36544, L131K); test: as above; assay type: cell-based; conditions: EC50 at α7 GlyR L131K, sheet 1d
[10] = molecular target: α7–GlyR mutant chimeric channels (Homo sapiens, UniProt P36544, Q79G); test: as above; assay type: cell-based; conditions: EC50 at α7-GlyR Q79G, sheet 1d
[11] = molecular target: α7–GlyR mutant chimeric channels (Homo sapiens, UniProt P36544, L131G); test: as above; assay type: cell-based; conditions: EC50 at α7GlyR L131G, sheet 1d
[12] = molecular target: α7–GlyR mutant chimeric channels (Homo sapiens, UniProt P36544, L131M); test: as above; assay type: cell-based; conditions: EC50 at α7 GlyR L131M, sheet 1d
α7–GlyR mutant chimeric channels (Homo sapiens, UniProt P36544, L131M), sequence (P36544 23-229 L131M): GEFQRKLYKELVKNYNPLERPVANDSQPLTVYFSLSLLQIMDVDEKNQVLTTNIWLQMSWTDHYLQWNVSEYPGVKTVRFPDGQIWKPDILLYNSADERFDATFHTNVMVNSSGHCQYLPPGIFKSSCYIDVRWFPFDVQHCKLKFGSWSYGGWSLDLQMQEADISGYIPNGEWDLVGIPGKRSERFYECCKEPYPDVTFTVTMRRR
α7–GlyR mutant chimeric channels (Homo sapiens, UniProt P36544, L131M), sequence (P23415 247-457 partner): as the sequence (P23415 247-457 partner) above

[13] = molecular target: α7–GlyR mutant chimeric channels (Homo sapiens, UniProt P36544, L131N); test: as above; assay type: cell-based; conditions: EC50 at α7 GlyR L131N, sheet 1d
α7–GlyR mutant chimeric channels (Homo sapiens, UniProt P36544, L131N), sequence (P36544 23-230 L131N): as the sequence (P36544 23-230 P216M) above, with L109N, M194P counted along it
α7–GlyR mutant chimeric channels (Homo sapiens, UniProt P36544, L131N), sequence (P23415 247-457 partner): as the sequence (P23415 247-457 partner) above

[14] = molecular target: α7–GlyR mutant chimeric channels (Homo sapiens, UniProt P36544, P216I); test: as above; assay type: cell-based; conditions: EC50 at α7 GlyR P216I, sheet 1d
α7–GlyR mutant chimeric channels (Homo sapiens, UniProt P36544, P216I), sequence (P36544 23-230 P216I): as the sequence (P36544 23-230 P216M) above, with M194I counted along it
α7–GlyR mutant chimeric channels (Homo sapiens, UniProt P36544, P216I), sequence (P23415 248-457 partner): as the sequence (P23415 248-457 partner) above

[15] = molecular target: α7–GlyR mutant chimeric channels (Homo sapiens, UniProt P36544, Q79A); test: as above; assay type: cell-based; conditions: EC50 at α7-GlyR Q79A, sheet 1d
α7–GlyR mutant chimeric channels (Homo sapiens, UniProt P36544, Q79A), sequence (P36544 23-230 Q79A): as the sequence (P36544 23-230 P216M) above, with Q57A, M194P counted along it
α7–GlyR mutant chimeric channels (Homo sapiens, UniProt P36544, Q79A), sequence (P23415 248-457 partner): as the sequence (P23415 248-457 partner) above

[16] = molecular target: α7–GlyR mutant chimeric channels (Homo sapiens, UniProt P36544, Q139G); test: as above; assay type: cell-based; conditions: EC50 at α7 GlyR Q139G, sheet 1d
[17] = molecular target: α7–GlyR mutant chimeric channels (Homo sapiens, UniProt P36544, W77F); test: as above; assay type: cell-based; conditions: EC50 at a7 GlyR W77F, sheet 1d
α7–GlyR mutant chimeric channels (Homo sapiens, UniProt P36544, W77F), sequence (P36544 23-230 W77F): as the sequence (P36544 23-230 P216M) above, with W55F, M194P counted along it
α7–GlyR mutant chimeric channels (Homo sapiens, UniProt P36544, W77F), sequence (P23415 248-457 partner): as the sequence (P23415 248-457 partner) above

[18] = molecular target: α7–GlyR mutant chimeric channels (Homo sapiens, UniProt P36544, L141F); test: as above; assay type: cell-based; conditions: EC50 at α7 GlyR L141F, sheet 1d
[19] = molecular target: α7–GlyR mutant chimeric channels (Homo sapiens, UniProt P36544, L141A); test: as above; assay type: cell-based; conditions: EC50 at α7 GlyR L141A, sheet 1d
α7–GlyR mutant chimeric channels (Homo sapiens, UniProt P36544, L141A), sequence (P36544 23-230 L141A): as the sequence (P36544 23-230 P216M) above, with L119A, M194P counted along it
α7–GlyR mutant chimeric channels (Homo sapiens, UniProt P36544, L141A), sequence (P23415 247-457 partner): as the sequence (P23415 247-457 partner) above

[20] = molecular target: α7–GlyR mutant chimeric channels (Homo sapiens, UniProt P36544, L131A); test: as above; assay type: cell-based; conditions: EC50 at α7GlyR L131A, sheet 1d
α7–GlyR mutant chimeric channels (Homo sapiens, UniProt P36544, L131A), sequence (P36544 23-228 L131A): as the sequence (P36544 23-228 L131F) above, with F109A counted along it
α7–GlyR mutant chimeric channels (Homo sapiens, UniProt P36544, L131A), sequence (P23415 248-457 partner): as the sequence (P23415 248-457 partner) above

[21] = molecular target: α7–GlyR mutant chimeric channels (Homo sapiens, UniProt P36544, P216V); test: as above; assay type: cell-based; conditions: EC50 at α7 GlyR P216V, sheet 1d
[22] = molecular target: α7–GlyR mutant chimeric channels (Homo sapiens, UniProt P36544, L141G); test: as above; assay type: cell-based; conditions: EC50 at α7 GlyR L141G, sheet 1d
α7–GlyR mutant chimeric channels (Homo sapiens, UniProt P36544, L141G), sequence (P36544 23-230 L141G): as the sequence (P36544 23-230 P216M) above, with L119G, M194P counted along it
α7–GlyR mutant chimeric channels (Homo sapiens, UniProt P36544, L141G), sequence (P23415 247-457 partner): as the sequence (P23415 247-457 partner) above

[23] = molecular target: α7–GlyR mutant chimeric channels (Homo sapiens, UniProt P36544, P216A); test: as above; assay type: cell-based; conditions: EC50 at α7 GlyR P216A, sheet 1d
[24] = tested on: coca-GlyR in cultured hippocampal neurons; test: Current-clamp of cultured hippocampal neurons expressing coca-GlyR; assay type: cell-based, rat

COC(=O)[C@H]1[C@@H](OC(=O)c2ccccc2)C[C@@H]2CC[C@H]1N2C [cocaine]
EC50 [1]: 2.35 µM | EC50 [2]: > 30 µM | EC50 [3]: > 30 µM | EC50 ([4]; Avg): > 30 µM | EC50 ([4]; single determinations): > 30 µM | EC50 ([5]; Avg): > 30 µM | EC50 ([5]; single determinations): > 30 µM | EC50 ([6]; Avg): > 30 µM | EC50 ([6]; single determinations): > 30 µM | EC50 ([7]; Avg): > 30 µM | EC50 ([7]; single determinations): > 30 µM | EC50 ([8]; Avg): > 30 µM | EC50 ([8]; single determinations): > 30 µM | EC50 ([9]; Avg): > 30 µM | EC50 ([9]; single determinations): > 30 µM | EC50 ([10]; Avg): > 30 µM | EC50 ([10]; single determinations): > 30 µM | EC50 ([11]; Avg): > 30 µM | EC50 ([11]; single determinations): > 30 µM | EC50 ([12]; Avg): > 30 µM | EC50 ([12]; single determinations): > 30 µM | EC50 ([13]; Avg): 21 µM | EC50 ([13]; single determinations): 12 µM and > 30 µM | EC50 ([14]; Avg): > 30 µM | EC50 ([14]; single determinations): > 30 µM | EC50 ([15]; Avg): > 30 µM | EC50 ([15]; single determinations): > 30 µM | EC50 ([16]; Avg): > 30 µM | EC50 ([16]; single determinations): > 30 µM | EC50 ([17]; Avg): 3.4 µM | EC50 ([17]; single determinations): 3.4 µM | EC50 ([18]; Avg): > 30 µM | EC50 ([18]; single determinations): > 30 µM | EC50 ([19]; Avg): 5 µM | EC50 ([19]; single determinations): 6.7 µM and 3.3 µM | EC50 ([20]; Avg): > 30 µM | EC50 ([20]; single determinations): > 30 µM | EC50 ([21]; Avg): > 30 µM | EC50 ([21]; single determinations): > 30 µM | EC50 ([22]; Avg): 8.3 µM | EC50 ([22]; single determinations): 5.6 µM and 11 µM | EC50 ([23]; Avg): > 30 µM | EC50 ([23]; single determinations): > 30 µM | rheobase ([24]; coca-GlyR neurons, 10 uM, single cells): 200 pA | firing in response to current injection ([24]; neurons with coca-GlyR): inhibited | membrane input resistance ([24]; neurons with coca-GlyR): dose-dependent reduction | rheobase ([24]; neurons with coca-GlyR, cocaine 3 and 10 µM): increased
